Results as given in patent publication US20140378551A1, “Composition for the Prophylactic Treatment of Neuropathic Pain” (Universite d'Auvergne, priority 2011, published 2014).
Where a name gives a salt, the structure may show the parent alone.

Key:
[1] = tested on: Tyr^1472 residue of the NR2B sub-unit of the NMDA receptor; experiment: Chronic intrathecal treatment, phosphorylation of Tyr1472 residue in diabetes pain context; type: in vivo; settings: chronic treatment administered intrathecally
Excerpt: (§1) It is relatively better tolerated by patients.

[2] = tested on: mechanical hyperalgesia induced by diabetes; experiment: Chronic intrathecal treatment, mechanical hyperalgesia induced by diabetes; type: in vivo; settings: chronic treatment administered intrathecally
Excerpt: as §1

[3] = doses of 5 to 30 mg memantine hydrochloride (Sang et al., 2002); cited from earlier work

## CC(C)(C)n1nc(-c2ccc(Cl)cc2)c2c(N)ncnc21 [PP2, 4-amino-5-(4-chlorophenyl)-7-(dimethylethyl) pyrazolo [3,4-d] pyrimidine]
[1]
  phosphorylation of the Tyr1472 residue: reduces phosphorylation of the Tyr^1472 residue
[2]
  mechanical hyperalgesia induced by diabetes: abolishes the mechanical hyperalgesia induced by diabetes

## CC12CC3CC(C)(C1)CC(N)(C3)C2 [memantine hydrochloride]
[3]
  tolerance by patients: well supported and tolerated by the patients
